How the values were obtained:
[1] = molecular target: JAK1 (Homo sapiens (Human), UniProt P23458); test: JAK kinase assay (HTRF), JAK1; format: biochemical; settings: catalytic domain, ATP at Km (7 μM)
Procedure, shortened: (§1)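 Catalytic-domain human JAK1 (GST-tagged, aa 850-1154) or His-tagged JAK2, baculovirus-expressed, phosphorylated 1 µM biotinylated TK peptide at Km ATP (JAK1 7 µM, 10 mM MgCl2, 50 nM SEB; JAK2 4 µM, 5 mM MgCl2) in pH 7.0 Hepes, 20-30 min RT. EDTA stop; overnight streptavidin-XL665/cryptate HTRF read.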

[2] = molecular target: JAK2 (Homo sapiens (Human), UniProt O60674); test: JAK kinase assay (HTRF), JAK2; format: biochemical; settings: catalytic domain, ATP at Km (4 μM)
Chain of JAK2 (O60674 849-1124): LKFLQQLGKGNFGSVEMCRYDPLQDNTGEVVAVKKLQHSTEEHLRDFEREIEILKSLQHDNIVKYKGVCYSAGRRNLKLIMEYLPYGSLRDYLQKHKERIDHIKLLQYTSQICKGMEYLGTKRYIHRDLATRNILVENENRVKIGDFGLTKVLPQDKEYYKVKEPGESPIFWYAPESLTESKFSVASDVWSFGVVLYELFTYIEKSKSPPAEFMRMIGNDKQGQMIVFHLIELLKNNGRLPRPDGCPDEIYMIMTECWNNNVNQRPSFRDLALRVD
Procedure, shortened: as §1

[3] = molecular target: JAK3 (Homo sapiens (Human), UniProt P52333); test: JAK kinase assay (HTRF), JAK3; format: biochemical; settings: catalytic domain, ATP at Km (2 μM)
Chain of JAK3 (P52333 822-1111): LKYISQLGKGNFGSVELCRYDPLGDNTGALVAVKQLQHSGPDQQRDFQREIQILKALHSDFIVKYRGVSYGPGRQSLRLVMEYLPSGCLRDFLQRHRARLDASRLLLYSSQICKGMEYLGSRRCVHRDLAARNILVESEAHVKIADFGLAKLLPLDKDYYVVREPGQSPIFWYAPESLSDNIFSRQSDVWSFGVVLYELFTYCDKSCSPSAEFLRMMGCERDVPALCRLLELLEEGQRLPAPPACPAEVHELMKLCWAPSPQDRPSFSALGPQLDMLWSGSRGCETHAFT
Procedure, shortened: (§2)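 HTRF read-out of biotinylated TK peptide phosphorylation (1 μM) after a 20-30 min RT reaction in pH 7.0 Hepes buffer with 5 mM MgCl2 and 0.75% DMSO. JAK3 (His-tagged catalytic domain) used 2 μM ATP; TYK2 (GST-tagged, aa 871-1187) used 13 μM ATP plus 50 nM SEB, each at ATP Km.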

[4] = molecular target: TYK2 (Homo sapiens (Human), UniProt P29597); test: JAK kinase assay (HTRF), TYK2; format: biochemical; settings: catalytic domain, ATP at Km (13 μM)
Chain of TYK2 (P29597 871-1187): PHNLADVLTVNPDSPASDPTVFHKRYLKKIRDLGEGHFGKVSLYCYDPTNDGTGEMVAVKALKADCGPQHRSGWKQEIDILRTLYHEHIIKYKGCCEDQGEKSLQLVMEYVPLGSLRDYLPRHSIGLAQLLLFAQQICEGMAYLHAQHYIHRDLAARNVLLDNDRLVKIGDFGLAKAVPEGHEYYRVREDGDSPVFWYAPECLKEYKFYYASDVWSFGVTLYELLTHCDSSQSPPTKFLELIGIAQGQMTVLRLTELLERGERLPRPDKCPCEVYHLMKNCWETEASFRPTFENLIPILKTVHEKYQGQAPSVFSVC
Procedure, shortened: as §2

[5] = in vitro metabolic stability in human liver microsomes; format: in vitro ADME; settings: 0.5 μM compound, 0.5 mg/mL microsomes, NADPH, 40 min, 37° C.; for CLint scaled at 0.5 μM: human, liver microsomes, read-out: Human liver microsome Clapp (apparent intrinsic clearance)
Procedure, shortened: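 Compounds at 0.5 μM incubated in duplicate with human liver microsomes (0.5 mg/mL), phosphate buffer and NADPH at 37 °C for 40 min, sampled at 0, 5, 10, 20, 40 min into cold acetonitrile. LC-TOF-MS depletion gave elimination rate constant, from which apparent intrinsic clearance (Clapp) was calculated.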

Chain of JAK1 (P23458 850-1154): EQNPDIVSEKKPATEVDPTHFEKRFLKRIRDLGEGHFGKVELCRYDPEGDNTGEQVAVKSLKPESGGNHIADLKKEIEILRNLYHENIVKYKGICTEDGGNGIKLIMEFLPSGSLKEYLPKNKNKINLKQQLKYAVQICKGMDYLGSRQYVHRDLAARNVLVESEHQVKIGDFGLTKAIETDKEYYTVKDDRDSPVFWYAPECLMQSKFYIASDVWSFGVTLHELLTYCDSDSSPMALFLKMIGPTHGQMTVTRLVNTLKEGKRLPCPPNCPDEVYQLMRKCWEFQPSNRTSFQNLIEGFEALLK

Compound `O=C(NC[C@@H](O)c1ccccc1)C1CCN(c2ncnc3[nH]ccc23)CC12CC2` (stereo partly drawn) [Example 63, N-[(2S)-2-hydroxy-2-phenyl-ethyl]-5-(7H-pyrrolo[2,3-d]pyrimidin-4-yl)-5-azaspiro[2.5]octane-8-carboxamide] has an EC50 [1] of 4.5 nM, an EC50 [2] of 15.9 nM and an EC50 [3] of 58.5 nM. For the same compound, the EC50 [4] was 147 nM and the CLint scaled at 0.5 μM [5] was greater than 200 mL/min/kg.

Work on `O=C(OCC1CC(F)(F)C1)[C@H]1CCN(c2ncnc3[nH]ccc23)CC12CC2` [Example 154, (3,3-difluorocyclobutyl)methyl (8S)-5-(7H-pyrrolo[2,3-d]pyrimidin-4-yl)-5-azaspiro[2.5]octane-8-carboxylate] yielded an EC50 [1] of 0.9 nM, an EC50 [2] of 1.7 nM and an EC50 [3] of 5.1 nM. For the same compound, the EC50 [4] was 15.7 nM and the CLint scaled at 0.5 μM [5] was 149 mL/min/kg.

In the case of `N#Cc1ccc([C@@H](O)CNC(=O)[C@H]2CCN(c3ncnc4[nH]ccc34)CC23CC3)nc1` [Example 36, (8S)-N-[(2S)-2-(5-cyano-2-pyridyl)-2-hydroxy-ethyl]-5-(7H-pyrrolo[2,3-d]pyrimidin-4-yl)-5-azaspiro[2.5]octane-8-carboxamide], the EC50 [1] is reported as 2 nM, the EC50 [2] is reported as 8.7 nM and the EC50 [3] is reported as 25.2 nM. It also gave an EC50 [4] of 70.5 nM and a CLint scaled at 0.5 μM [5] of 72 mL/min/kg.

Compound `O=C(NC[C@@H](O)C1CCCC1)[C@H]1CCN(c2ncnc3[nH]ccc23)CC12CC2` [Example 32, (8S)-N-[(2S)-2-cyclopentyl-2-hydroxy-ethyl]-5-(7H-pyrrolo[2,3-d]pyrimidin-4-yl)-5-azaspiro[2.5]octane-8-carboxamide] has an EC50 [1] of 1.8 nM, an EC50 [2] of 5.2 nM and an EC50 [3] of 8.3 nM. The EC50 [4] was 25.4 nM and the CLint scaled at 0.5 μM [5] was 159 mL/min/kg.

With `O=C(N[C@H](CO)c1ccccc1)C1CCN(c2ncnc3[nH]ccc23)CC12CC2` (stereo partly drawn) [Example 127, N-[(1S)-2-hydroxy-1-phenyl-ethyl]-5-(7H-pyrrolo[2,3-d]pyrimidin-4-yl)-5-azaspiro[2.5]octane-8-carboxamide] the EC50 [1] was 19.9 nM, the EC50 [2] was 52.1 nM and the EC50 [3] was 68.1 nM. For the same compound, the EC50 [4] was 1100 nM and the CLint scaled at 0.5 μM [5] was 44 mL/min/kg.

Compound `O=C(NC[C@@H](O)c1ccc(F)cn1)[C@H]1CCN(c2ncnc3[nH]ccc23)CC12CC2` [Example 12, (8S)-N-[(2R)-2-(5-fluoro-2-pyridyl)-2-hydroxy-ethyl]-5-(7H-pyrrolo[2,3-d]pyrimidin-4-yl)-5-azaspiro[2.5]octane-8-carboxamide] has an EC50 [1] of 0.8 nM, an EC50 [2] of 4 nM and an EC50 [3] of 26.5 nM. For the same compound, the EC50 [4] was 13.9 nM and the CLint scaled at 0.5 μM [5] was 143 mL/min/kg.

With `C[C@H](NC(=O)[C@H]1CCN(c2ncnc3[nH]ccc23)CC12CC2)[C@@H](O)c1ccc(F)cc1` [Example 6, (8S)-N-[(1S,2S)-2-(4-fluorophenyl)-2-hydroxy-1-methyl-ethyl]-5-(7H-pyrrolo[2,3-d]pyrimidin-4-yl)-5-azaspiro[2.5]octane-8-carboxamide] the EC50 [1] was 0.6 nM, the EC50 [2] was 1.4 nM and the EC50 [3] was 7.4 nM. The EC50 [4] was 7 nM and the CLint scaled at 0.5 μM [5] was greater than 200 mL/min/kg.

Work on `N#CC1CC(CNC(=O)C2CCN(c3ncnc4[nH]ccc34)CC23CC3)C1` (stereo not shown) [Example 59, N-[(3-cyanocyclobutyl)methyl]-5-(7H-pyrrolo[2,3-d]pyrimidin-4-yl)-5-azaspiro[2.5]octane-8-carboxamide] yielded an EC50 [1] of 4.2 nM, an EC50 [2] of 12.1 nM and an EC50 [3] of 24.5 nM. The EC50 [4] was 322 nM and the CLint scaled at 0.5 μM [5] was 28 mL/min/kg.

Compound `O=C(N[C@H](CO)C(=O)OCC1CC(F)(F)C1)[C@H]1CCN(c2ncnc3[nH]ccc23)CC12CC2` [Example 42, (3,3-difluorocyclobutyl)methyl (2R)-3-hydroxy-2-[[(8S)-5-(7H-pyrrolo[2,3-d]pyrimidin-4-yl)-5-azaspiro[2.5]octane-8-carbonyl]amino]propanoate] has an EC50 [1] of 2.7 nM, an EC50 [2] of 6.7 nM and an EC50 [3] of 20.2 nM. It also gave an EC50 [4] of 51.3 nM and a CLint scaled at 0.5 μM [5] greater than 200 mL/min/kg.

Work on `C[C@H](NC(=O)[C@H]1CCN(c2ncnc3[nH]ccc23)CC12CC2)c1ccc(C#N)c(F)c1` [Example 14, (8S)-N-[(1S)-1-(4-cyano-3-fluoro-phenyl)ethyl]-5-(7H-pyrrolo[2,3-d]pyrimidin-4-yl)-5-azaspiro[2.5]octane-8-carboxamide] yielded an EC50 [1] of 0.9 nM, an EC50 [2] of 2.2 nM and an EC50 [3] of 6.5 nM. For the same compound, the EC50 [4] was 26.8 nM and the CLint scaled at 0.5 μM [5] was greater than 200 mL/min/kg.

`C[C@H](NC(=O)[C@H]1CCN(c2ncnc3[nH]ccc23)CC12CC2)[C@@H](O)c1ccc(C#N)cc1` [Example 43, (8S)-N-[(1S,2S)-2-(4-cyanophenyl)-2-hydroxy-1-methyl-ethyl]-5-(7H-pyrrolo[2,3-d]pyrimidin-4-yl)-5-azaspiro[2.5]octane-8-carboxamide] showed an EC50 [1] of 2.8 nM, an EC50 [2] of 5.2 nM and an EC50 [3] of 8.8 nM. For the same compound, the EC50 [4] was 131 nM and the CLint scaled at 0.5 μM [5] was 166 mL/min/kg.

With `O=C(NC[C@H](O)c1ccccc1)C1CCN(c2ncnc3[nH]ccc23)CC12CC2` (stereo partly drawn) [Example 103, N-[(2R)-2-hydroxy-2-phenyl-ethyl]-5-(7H-pyrrolo[2,3-d]pyrimidin-4-yl)-5-azaspiro[2.5]octane-8-carboxamide] the EC50 [1] was 9.9 nM, the EC50 [2] was 21.4 nM and the EC50 [3] was 40.6 nM. The EC50 [4] was 509 nM and the CLint scaled at 0.5 μM [5] was 128 mL/min/kg.

Compound `N#Cc1ccc([C@@H](CO)NC(=O)C2CCN(c3ncnc4[nH]ccc34)CC23CC3)cc1` (stereo partly drawn) [Example 94, N-[(1S)-1-(4-cyanophenyl)-2-hydroxy-ethyl]-5-(7H-pyrrolo[2,3-d]pyrimidin-4-yl)-5-azaspiro[2.5]octane-8-carboxamide] has an EC50 [1] of 8.6 nM, an EC50 [2] of 53.7 nM and an EC50 [3] of 91.1 nM. The EC50 [4] was 967 nM and the CLint scaled at 0.5 μM [5] was 23 mL/min/kg.

Compound `Cc1cc([C@H](O)[C@H](C)NC(=O)[C@H]2CCN(c3ncnc4[nH]ccc34)CC23CC3)ccc1F` [Example 40, (8S)-N-[(1S,2S)-2-(4-fluoro-3-methyl-phenyl)-2-hydroxy-1-methyl-ethyl]-5-(7H-pyrrolo[2,3-d]pyrimidin-4-yl)-5-azaspiro[2.5]octane-8-carboxamide] has an EC50 [1] of 2.4 nM, an EC50 [2] of 8.3 nM and an EC50 [3] of 39.5 nM. The EC50 [4] was 40.6 nM and the CLint scaled at 0.5 μM [5] was greater than 200 mL/min/kg.

Compound `O=C(N[C@@H](CO)C1CCCCC1)[C@H]1CCN(c2ncnc3[nH]ccc23)CC12CC2` [Example 24, (8S)-N-[(1R)-1-cyclohexyl-2-hydroxy-ethyl]-5-(7H-pyrrolo[2,3-d]pyrimidin-4-yl)-5-azaspiro[2.5]octane-8-carboxamide] has an EC50 [1] of 1.3 nM, an EC50 [2] of 2.7 nM and an EC50 [3] of 10.9 nM. It also gave an EC50 [4] of 19.9 nM and a CLint scaled at 0.5 μM [5] of 159 mL/min/kg.

Work on `O=C(OCC1(CO)CCCC1)[C@H]1CCN(c2ncnc3[nH]ccc23)CC12CC2` [Example 159, [1-(hydroxymethyl)cyclopentyl]methyl (8S)-5-(7H-pyrrolo[2,3-d]pyrimidin-4-yl)-5-azaspiro[2.5]octane-8-carboxylate] yielded an EC50 [1] of 0.5 nM, an EC50 [2] of 1.3 nM and an EC50 [3] of 3.1 nM. It also gave an EC50 [4] of 5.1 nM and a CLint scaled at 0.5 μM [5] greater than 200 mL/min/kg.

`C[C@H](NC(=O)[C@H]1CCN(c2ncnc3[nH]ccc23)CC12CC2)[C@@H](O)C1CCCCC1` [Example 3, (8S)-N-[(1S,2S)-2-cyclohexyl-2-hydroxy-1-methyl-ethyl]-5-(7H-pyrrolo[2,3-d]pyrimidin-4-yl)-5-azaspiro[2.5]octane-8-carboxamide] gave an EC50 [1] of 0.5 nM, an EC50 [2] of 1.1 nM and an EC50 [3] of 3.4 nM. For the same compound, the EC50 [4] was 6.2 nM and the CLint scaled at 0.5 μM [5] was greater than 200 mL/min/kg.

With `Cc1cc([C@H](O)CNC(=O)[C@H]2CCN(c3ncnc4[nH]ccc34)CC23CC3)ncc1F` [Example 44, (8S)-N-[(2R)-2-(5-fluoro-4-methyl-2-pyridyl)-2-hydroxy-ethyl]-5-(7H-pyrrolo[2,3-d]pyrimidin-4-yl)-5-azaspiro[2.5]octane-8-carboxamide] the EC50 [1] was 3.1 nM, the EC50 [2] was 15.8 nM and the EC50 [3] was 68.5 nM. The EC50 [4] was 63.2 nM and the CLint scaled at 0.5 μM [5] was greater than 200 mL/min/kg.

`O=C(N[C@@H](CO)[C@@H](O)c1ccc(F)cc1)[C@H]1CCN(c2ncnc3[nH]ccc23)CC12CC2` [Example 9, (8S)-N-[(1S,2S)-2-(4-fluorophenyl)-2-hydroxy-1-(hydroxymethyl)ethyl]-5-(7H-pyrrolo[2,3-d]pyrimidin-4-yl)-5-azaspiro[2.5]octane-8-carboxamide] gave an EC50 [1] of 0.7 nM, an EC50 [2] of 1.6 nM and an EC50 [3] of 7 nM. The EC50 [4] was 7.7 nM and the CLint scaled at 0.5 μM [5] was greater than 200 mL/min/kg.

`O=C(NC[C@@H](O)C1CCCC1)[C@H]1CCN(c2ncnc3[nH]ccc23)CC12CC2` [Example 1, (8S)-N-[(2S)-2-cyclopentyl-2-hydroxy-ethyl]-5-(7H-pyrrolo[2,3-d]pyrimidin-4-yl)-5-azaspiro[2.5]octane-8-carboxamide] gave an EC50 [1] of 0.5 nM, an EC50 [2] of 1 nM and an EC50 [3] of 3.3 nM. The EC50 [4] was 3.6 nM and the “Human liver microsome Clapp (apparent intrinsic clearance)” value [5] was 190 mL/min/kg.

Reference: patent publication US10799507B2, “5-(7H-pyrrolo[2,3-d]pyrimidin-4-yl)-5-azaspiro[2.5]octane-8-carboxylic acid derivatives as novel JAK kinase inhibitors” (LEO Pharma A/S, priority 2017, dated 2020)
